Test results taken from article PMC9962735, “Synthesis and Cytotoxic Activity of the Derivatives of N-(Purin-6-yl)aminopolymethylene Carboxylic Acids and Related Compounds” (Molecules, 2023).

Assays:
[1] = MTT cytotoxicity assay, WI-38 normal cells; format: cell-based; conditions: human, WI-38 lung fibroblasts (normal cells), WI-38, 72 h incubation, MTT, n = 3 (Table 3)
Source text: (§1) The cytotoxicity of the test compounds was studied using the MTT assay against a number of cell lines: CT-26 murine colon carcinoma, 4T1 murine mammary carcinoma, MDA-MB-231 human breast adenocarcinoma, COLO201 human colorectal adenocarcinoma, HepG2 human hepatocellular carcinoma, A549 human non-small-cell lung carcinoma, SK-BR-3 human breast adenocarcinoma, SNU-1 human gastric carcinoma, Jurkat human acute T-lymphoblastic leukemia, and WI-38 human lung fibroblasts (normal cells). Doxorubicin (Dox) was used as a reference drug. Cells were incubated with test compounds for 72 h.
(§2) Cells were seeded in flat-bottomed 96-well plates at 10,000 cells per well (for A549, SNU-1, WI-38, CT-26, MDA-MB-231, 4T1, and HepG2 cells) or 20,000 cells per well (for SK-BR-3, Jurkat, and COLO201 cells) and cultivated in complete culture mediums (for composition of each medium, see the Supplementary Materials, Table S1) in a CO2 incubator at 37 °C. At the first stage of this study, the test compounds dissolved in DMSO were added to the wells with cells at final concentrations from 1 × 10^–4 to 1 × 10^–10 mol/L (A549, SK-BR-3, SNU-1, Jurkat, and WI-38) or 1 × 10^–3 to 1 × 10^–8 mol/L (CT-26, MDA-MB-231, 4T1, COLO201, and HepG2); DMSO concentration in the wells was finally 1%. A complete cultural medium and DMSO were added to the control wells at the same concentration as in the experimental wells; 0.1% Triton X-100 solution (10 µL) was added to the corresponding wells as a non-specific positive control. After adding the test compounds, the cells were incubated for 72 h in an atmosphere containing 5% CO2. After that, the nutrient medium was removed from each well (in the case of SK-BR-3, Jurkat, and COLO201, plates were pre-centrifuged at 1500 rpm for 6 min). A solution of the commercial anticancer agent Doxorubicin (Dox, Sigma-Aldrich, St. Louis, MO, USA) in DMSO was used as a reference drug. Then, 150 µL of a complete medium with the MTT reagent (PanEco, Moscow, Russia) at a concentration of 0.5 mg/mL was added and incubated for 2 h. Formazan crystals were dissolved in DMSO (200 µL) and the absorbance in the wells was measured at 540 nm and a reference wavelength of 650 nm (Sunrise, Tecan, Groding, Austria). Experiments were performed in three parallel runs. Cell viability after incubation in the presence of test compounds was calculated in relation to cell viability in the control wells according to the Formula (1):Cell viability (%) = (Aexp/Ac) × 100,(1) where Aexp is the optical density of solutions in the wells containing test compounds; Ac is the optical density of solutions in control wells without test compounds. For detailed information on cell viability of various cell lines, see the Supplementary Materials, Figures S21–S26.
(§3) At the second stage of this study, in order to more accurately calculate the CC50 (the half maximal inhibitory concentration), the cytotoxic effect of test compounds was evaluated at concentrations close to CC50 found at the first stage. The study of the cytotoxic activity of each substance towards the cells of each line was carried out in triplicate; the mean value was used to calculate CC50. The CC50 values were determined by non-linear regression analysis using Graph-Pad Prism7.

[2] = test system: A549, SK-BR-3, SNU-1, Jurkat, WI-38 cell lines; test: MTT cytotoxicity assay, cell line panel (result in words); format: cell-based, human; conditions: 72 h
Source text: as §1
The cytotoxicity of compounds 2a–c, 6, 7, and 9 was also studied using the MTT assay against a number of tumor cell lines: A549, SK-BR-3, SNU-1, Jurkat, as well as normal fibroblasts WI-38 (Table 3).
as §2, §3

[3] = test system: Jurkat human acute T-lymphoblastic leukemia; test: MTT cytotoxicity assay, Jurkat; format: cell-based; conditions: Homo sapiens, Jurkat, 72 h, 72 h incubation, MTT, n = 3 (Table 3)
Source text: as §1, §2, §3

[4] = test system: SNU-1 human gastric carcinoma; test: MTT cytotoxicity assay, SNU-1; format: cell-based; conditions: Homo sapiens, SNU1, 72 h, SNU-1, 72 h incubation, MTT, n = 3 (Table 3)
Source text: as §1, §2, §3

[5] = test system: SK-BR-3 human breast adenocarcinoma; test: MTT cytotoxicity assay, SK-BR-3; format: cell-based; conditions: Homo sapiens, SK-BR-3, 72 h, SK-BR-3, 72 h incubation, MTT, n = 3 (Table 3)
Source text: as §1, §2, §3

[6] = test system: A549 human non-small-cell lung carcinoma; test: MTT cytotoxicity assay, A549; format: cell-based; conditions: Homo sapiens, A549, 72 h, A549, 72 h incubation, MTT, n = 3 (Table 3)
Source text: as §1, §2, §3

[7] = MTT cytotoxicity assay, Jurkat; format: cell-based, human; conditions: human, CC50 of WI-38 divided by CC50 of Jurkat (Table 3); read-out: SCI (selective cytotoxicity index)
Source text: as §1, §2, §3

[8] = MTT cytotoxicity assay, SNU-1; format: cell-based, human; conditions: human, CC50 of WI-38 divided by CC50 of SNU-1 (Table 3); read-out: SCI (selective cytotoxicity index)
Source text: as §1, §2, §3

[9] = MTT cytotoxicity assay, SK-BR-3; format: cell-based, human; conditions: human, CC50 of WI-38 divided by CC50 of SK-BR-3 (Table 3); read-out: SCI (selective cytotoxicity index)
Source text: as §1, §2, §3

[10] = MTT cytotoxicity assay, A549; format: cell-based, human; conditions: human, CC50 of WI-38 divided by CC50 of A549 (Table 3); read-out: SCI (selective cytotoxicity index)
Source text: as §1, §2, §3

melting point | Compound | CC50 at 72 h [1] | cytotoxic activity (in words) [2] | CC50 [3] | CC50 [4] | CC50 [5] | CC50 [6] | selectivity ratio at 72 h [7] | selectivity ratio at 72 h [8] | selectivity ratio at 72 h [9] | selectivity ratio at 72 h [10]
41 to 42 °C | C[C@H]1COc2c(ccc(F)c2F)N1C(=O)CCCCCCCCC(=O)N1c2ccc(F)c(F)c2OC[C@@H]1C (hydrate or solvate) [(S)-9, 1,10-bis((S)-7,8-Difluoro-3-methyl-2H-benzo[b][1,4]oxazin-4(3H)-yl)decan-1,10-dione] |  |  |  |  |  |  |  |  |  | 
103 to 104 °C | CC1COc2c(ccc(F)c2F)N1C(=O)CCCCCCCCC(=O)N1c2ccc(F)c(F)c2OCC1C (stereo not drawn) (hydrate or solvate) [Compound 9, 1,10-bis(-7,8-Difluoro-3-methyl-2H-benzo[b][1,4]oxazin-4(3H)-yl)decan-1,10-dione] |  |  |  |  |  |  |  |  |  | 
 | C[C@H]1COc2c(ccc(F)c2F)N1C(=O)CCCCCCCCC(=O)N1c2ccc(F)c(F)c2OC[C@@H]1C [(S)-9, 1,10-bis((S)-7,8-Difluoro-3-methyl-2H-benzo[b][1,4]oxazin-4(3H)-yl)decan-1,10-dione] | > 100 µM | did not exhibit cytotoxic activity | > 100 µM | > 100 µM | > 100 µM | > 100 µM |  |  |  | 
 | CC1COc2c(ccc(F)c2F)N1C(=O)CNc1ncnc2[nH]cnc12 (stereo not drawn) [Compound 1a] | > 100 µM | non-cytotoxic | > 100 µM | > 100 µM | > 100 µM | > 100 µM |  |  |  | 
172 to 174 °C | O=C(O)CCCCCCCCCCNc1ncnc2nc[nH]c12 [Compound 2a, N-(Purin-6-yl)-11-aminoundecanoic Acid] | > 100 µM | cytotoxic only against the Jurkat cell line | 59 µM | > 100 µM | > 100 µM | > 100 µM | ≥ 1.7 |  |  | 
 | O=C(O)CCCCCCCCCCCNc1ncnc2nc[nH]c12 [Compound 2b, N-(Purin-6-yl)-12-aminododecanoic Acid] | > 100 µM | cytotoxic only against the Jurkat cell line | 49 µM | > 100 µM | > 100 µM | > 100 µM |  |  |  | 
198 to 199 °C | O=C(O)CCCCCCCCCCCCCCNc1ncnc2nc[nH]c12 [Compound 2c, N-(Purin-6-yl)-15-aminopentadecanoic Acid] | > 100 µM | no cytotoxic activity | > 100 µM | > 100 µM | > 100 µM | > 100 µM |  |  |  | 
 | CC(=O)OCCOCn1cnc2c(NCCCCCCCCCCC(=O)N3c4ccc(F)c(F)c4OCC3C)ncnc21 (stereo not drawn) [Compound 6, {11-[9-(2-Acetoxyethoxy)methylpurin-6-yl]aminoundecanoyl]-7,8-difluoro-3,4-dihydro-3-methyl-2H-[1,4]benzoxazine] | 30 µM | approximately the same cytotoxicity as the most active compound 1d | 10 µM | 5.6 µM | 370 µM | 15 µM | 3 | 5.4 | 0.08 | 2
 | CC1COc2c(ccc(F)c2F)N1C(=O)CCCCCCCCC(=O)N1c2ccc(F)c(F)c2OCC1C (stereo not drawn) [Compound 9, 1,10-bis(-7,8-Difluoro-3-methyl-2H-benzo[b][1,4]oxazin-4(3H)-yl)decan-1,10-dione] | > 100 µM | did not exhibit cytotoxic activity | > 100 µM | > 100 µM | > 100 µM | > 100 µM |  |  |  | 
 | COc1cccc2c1C(=O)c1c(O)c3c(c(O)c1C2=O)C[C@@](O)(C(=O)CO)C[C@@H]3O[C@H]1C[C@H](N)[C@H](O)[C@H](C)O1 [Dox, Doxorubicin, reference compound] | 0.23 µM |  | 0.12 µM | 0.14 µM | 1.5 µM | 0.22 µM | 1.9 | 1.6 | 0.15 | 1
